# Reference: the supplement of paper PMC4862054
# Legend:
# Conditions in all cases: incubation time: 72 h
# [1] = tested on: BT-474; assay: normalised response (% of control), CellTox Green; higher = less cell death (100 = DMSO, 0 = benzethonium chloride kill control)
# Procedure, shortened: (§1)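 Compound was dispensed into 384-well plates at 5 concentrations in 10-fold steps spanning a 10,000-fold range specific to that compound. Breast cancer cell lines were added as 20 µl suspension and left for 72 h before CellTox Green fluorescence (485/520 nm) and then CellTiter-Glo luminescence, read after 10 min at room temperature. Each reported value is the normalised signal at one concentration, with 0.1 % DMSO set at 100 and a positive kill control at 0 on each plate.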
# [2] = tested on: BT-549; assay: as above
# Procedure, shortened: as §1
# [3] = tested on: CAL-120; assay: as above
# Procedure, shortened: as §1
# [4] = tested on: CAL-148; assay: as above
# Procedure, shortened: as §1
# [5] = tested on: CAL-51; assay: as above
# Procedure, shortened: as §1
# [6] = tested on: CAL-85-1; assay: as above
# Procedure, shortened: as §1
# [7] = tested on: DU-4475; assay: as above
# Procedure, shortened: as §1
# [8] = tested on: HCC1143; assay: as above
# Procedure, shortened: as §1
# [9] = tested on: HCC1599; assay: as above
# Procedure, shortened: as §1
# [10] = tested on: HCC1937; assay: as above
# Procedure, shortened: as §1
# [11] = tested on: HDQ-P1; assay: as above
# Procedure, shortened: as §1
# [12] = tested on: Hs578T; assay: as above
# Procedure, shortened: as §1
# [13] = tested on: MCF-10A; assay: as above
# Procedure, shortened: as §1
# [14] = tested on: MDA-MB-231; assay: as above
# Procedure, shortened: as §1
# [15] = tested on: MDA-MB-436; assay: as above
# Procedure, shortened: as §1
# [16] = tested on: MDA-MB-453; assay: as above
# Procedure, shortened: as §1
# [17] = tested on: MDA-MB-468; assay: as above
# Procedure, shortened: as §1
# [18] = tested on: MFM-223; assay: as above
# Procedure, shortened: as §1
# [19] = tested on: BT-474; assay: normalised response (% of control), CellTiter-Glo; higher = more viable cells (100 = DMSO, 0 = benzethonium chloride kill control)
# Procedure: (§2)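 DSRT, 72 h incubation, CellTox Green / CellTiter-Glo readout. Signal is normalised to DMSO and benzethonium chloride controls. Value is the normalised response at dose 3.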
# [20] = tested on: BT-549; assay: as above
# Procedure: as §2
# [21] = tested on: CAL-120; assay: as above
# Procedure: as §2
# [22] = tested on: CAL-148; assay: as above
# Procedure: as §2
# [23] = tested on: CAL-51; assay: as above
# Procedure: as §2
# [24] = tested on: CAL-85-1; assay: as above
# Procedure: as §2
# [25] = tested on: DU-4475; assay: as above
# Procedure: as §2
# [26] = tested on: HCC1143; assay: as above
# Procedure: as §2
# [27] = tested on: HCC1599; assay: as above
# Procedure: as §2
# [28] = tested on: HCC1937; assay: as above
# Procedure: as §2
# [29] = tested on: HDQ-P1; assay: as above
# Procedure: as §2
# [30] = tested on: Hs578T; assay: as above
# Procedure: as §2
# [31] = tested on: MCF-10A; assay: as above
# Procedure: as §2
# [32] = tested on: MDA-MB-231; assay: as above
# Procedure: as §2
# [33] = tested on: MDA-MB-436; assay: as above
# Procedure: as §2
# [34] = tested on: MDA-MB-453; assay: as above
# Procedure: as §2
# [35] = tested on: MDA-MB-468; assay: as above
# Procedure: as §2
# [36] = tested on: MFM-223; assay: as above
# Procedure: as §2
# [37] = tested on: SK-BR-3; assay: as above
# Procedure: as §2
SMILES,normalised response [1],normalised response [2],normalised response [3],normalised response [4],normalised response [5],normalised response [6],normalised response [7],normalised response [8],normalised response [9],normalised response [10],normalised response [11],normalised response [12],normalised response [13],normalised response [14],normalised response [15],normalised response [16],normalised response [17],normalised response [18],normalised response [19],normalised response [20],normalised response [21],normalised response [22],normalised response [23],normalised response [24],normalised response [25],normalised response [26],normalised response [27],normalised response [28],normalised response [29],normalised response [30],normalised response [31],normalised response [32],normalised response [33],normalised response [34],normalised response [35],normalised response [36],normalised response [37]
CCn1c(-c2nonc2N)nc2cnc(Oc3cccc(NC(=O)c4ccc(OCCN5CCOCC5)cc4)c3)cc21 (100 nM),103%,90.2%,102%,98.4%,63.3%,98.3%,100%,101%,96.8%,108%,105%,66.9%,97.3%,79.4%,82%,101%,119%,95.4%,81.8%,88.6%,81.9%,99.6%,80%,95.5%,95.4%,103%,95.9%,102%,99.6%,80.5%,75.6%,86.5%,103%,97.1%,91.4%,98%,97.9%
CNC(=O)c1ccc(N2C(=S)N(c3ccc(C#N)c(C(F)(F)F)c3)C(=O)C2(C)C)cc1F [Enzalutamide] (100 nM),103%,103%,106%,100%,74.8%,117%,107%,111%,103%,94.6%,71.9%,95.1%,86.1%,113%,96.9%,106%,126%,101%,99.7%,97.1%,106%,106%,70.4%,108%,99.1%,101%,113%,91.1%,97.4%,102%,108%,95.9%,101%,105%,102%,104%,101%
C=C1C[C@@H]2[C@H](CC[C@]3(C)C(=O)CC[C@@H]23)[C@@]2(C)C=CC(=O)C=C12 [Exemestane] (100 nM),104%,92.8%,102%,89%,116%,101%,109%,99.6%,112%,56.9%,94.5%,86.8%,109%,117%,109%,108%,50%,107%,98.6%,101%,106%,109%,111%,103%,106%,104%,104%,94.8%,102%,104%,110%,107%,103%,106%,101%,106%,106%
Cc1cc(Nc2cc(CN3CCOCC3)c3nc(C)c(Cc4ccc(Cl)cc4F)n3n2)n[nH]1 [Gandotinib] (100 nM),100%,90%,89%,103%,98.9%,95%,99.2%,108%,112%,102%,109%,72%,84.8%,103%,100%,102%,119%,105%,99.9%,94.4%,96.1%,105%,94.3%,102%,101%,109%,85.9%,104%,110%,96.3%,105%,98.8%,105%,104%,97.9%,93.4%,95.6%
NC(=O)c1ccc(I)c([N+](=O)[O-])c1 [Iniparib] (100 nM),95.7%,106%,99.1%,53.4%,98.5%,103%,94.2%,70.8%,83.9%,92.4%,99.5%,94.2%,100%,83%,67.8%,99.1%,128%,97.5%,92%,99%,89.6%,84.8%,117%,92%,98.8%,96.9%,94%,93.1%,95%,92.8%,76.1%,90.9%,93%,78.5%,85.2%,82.7%,80.9%
CCc1c2c(nc3ccc(OC(=O)N4CCC(N5CCCCC5)CC4)cc13)-c1cc3c(c(=O)n1C2)COC(=O)[C@]3(O)CC [Irinotecan] (100 nM),92.4%,93.4%,98.7%,104%,106%,94.9%,101%,86%,99.7%,98%,117%,77.4%,109%,89.2%,93.4%,102%,99.2%,73.8%,99.2%,95.3%,92.5%,96.6%,109%,103%,98.8%,96%,112%,94.8%,96.5%,98%,95.4%,96.2%,93.8%,102%,111%,106%,100%
O=C(Nc1cccnc1)N1CCC(Cc2cccc(Oc3ccc(C(F)(F)F)cn3)c2)CC1 [PF-3845] (100 nM),104%,99.9%,104%,103%,110%,97.5%,107%,121%,113%,110%,105%,87.9%,107%,121%,107%,104%,107%,102%,103%,104%,102%,113%,106%,104%,102%,107%,85%,103%,96.7%,103%,112%,115%,103%,113%,107%,110%,112%
Cc1[nH]c2ccccc2c1CCNCc1ccc(/C=C/C(=O)NO)cc1 [Panobinostat] (10 nM),75.8%,106%,99.7%,83.1%,99.8%,89.9%,95.4%,76.1%,96.4%,99.2%,102%,106%,110%,86.3%,82.3%,81.9%,70.6%,94.9%,94.3%,99.7%,85.3%,83.1%,73.7%,77.1%,84%,88.5%,94.8%,81.5%,93.3%,88.1%,99.6%,88.4%,83.5%,50.6%,84.6%,90.8%,65.8%
COCC1(CO)C(=O)C2CCN1CC2 (stereo not drawn) [Prima-1 Met] (100 nM),101%,102%,102%,106%,108%,95.6%,101%,83.2%,114%,122%,109%,104%,82%,104%,86.5%,102%,145%,108%,96.8%,106%,99.3%,112%,99.6%,99.7%,96.1%,103%,119%,102%,103%,101%,107%,97.5%,101%,104%,95.8%,107%,98.7%
